Data reported in US20120082736A1, “Small-molecule TNF modulator to reduce the side effects of chemotherapy and radiotherapy” (GeneBlue Corporation, priority 2010, published 2012).

Experiments:
[1] = test system: BDF1 female mice treated with cisplatin; assay: Effect of pretreatment on BUN/creatinine, AST/ALT, WBC/platelet in blood of cisplatin-treated mice (Example 2); format: in vivo; settings: blood day 6; for platelet count, effect of pretreatment: vs Gp 1 (Control)
Experimental: Gp 1: medium (saline). Gp 2: saline followed by cisplatin (2.5 mg/kg) 30 min later. Gp 3: UTL-5g (15 mg/kg) followed by cisplatin (2.5 mg/kg) 30 min later. Gp 4: UTL-5g (30 mg/kg) followed by cisplatin (2.5 mg/kg) 30 min later. Gp 5: UTL-5g (60 mg/kg) followed by cisplatin (2.5 mg/kg) 30 min later. Gp 6: amifostine (200 mg/kg) followed by cisplatin (2.5 mg/kg) 30 min later; Gp 7: saline followed by cisplatin (5 mg/kg) 30 min later. Gp 1-Gp 6 were daily ×5, but Gp 7 was by single dose on day 0 only. StDev is shown for each Gp (n=5 for each group except for Gp 7, n=3). ** two-tailed p<0.005 vs medium control by Student's t-test.
(§1) Gp 1: medium (saline). Gp 2: saline followed by cisplatin (2.5 mg/kg) 30 min later. Gp 3: UTL-5g (15 mg/kg) followed by cisplatin 30 min later. Gp 4: UTL-5g (30 mg/kg) followed by cisplatin (2.5 mg/kg) 30 min later. Gp 5: UTL-5g (60 mg/kg) followed by cisplatin (2.5 mg/kg) 30 min later. Gp 6: amifostine (200 mg/kg) followed by cisplatin (2.5 mg/kg) 30 min later. Gp 7: saline followed by cisplatin (5 mg/kg) 30 min later. Gp 1-Gp 6 were daily ×5, but Gp 7 was by single dose on day 0 only. StDev is shown for each Gp (n=5 for each group except n=4 for Gp 7). * P<0.05, ** p<0.005 vs. medium control (Gp 1) by Student's t-test (two-tailed).
as §1, with “p<0.005, *** p<0.0005” for “p<0.005”, “control” for “control (Gp 1)”
BDF1 female mice (average wt ˜20 g/mouse) were randomly divided into the following groups (5 mice per group) and each treated daily ×5 (starting from day 0) by ip injection (0.25 mL/mouse), except in Gp 7, each was treated by a single dose ip injection (0.25 mL/mouse) on day 0 only, as described below • Gp 1: medium (saline) followed by medium (saline) 30 min later • Gp 2: medium (saline) followed by cisplatin (2.5 mg/kg) 30 min later • Gp 3: UTL-5g (15 mg/kg) followed by cisplatin (2.5 mg/kg) 30 min later • Gp 4: UTL-5g (30 mg/kg) followed by cisplatin (2.5 mg/kg) 30 min later • Gp 5: UTL-5g (60 mg/kg) followed by cisplatin (2.5 mg/kg) 30 min later • Gp 6: amifostine (200 mg/kg) followed by cisplatin (2.5 mg/kg) 30 min later • Gp 7: medium (saline) followed by cisplatin (5 mg/kg) 30 min later (single dose on Day 0 only)
Preparation of the test samples are described below: • Cisplatin: Cisplatin was dissolved in saline (0.2 and 0.4 mg/mL in saline) for 2.5 and 5 mg/kg ip injection. • UTL-5g: The stock solution of UTL-5g was first dissolved in DMSO and equal volume of Cremophor/propylene glycol (60/40 v/v) was added to make a stock solution. Immediately before the injection, saline was added to this temporary solution at a 90:10 v/v ratio and mixed thoroughly. Three concentrations for ip injection were prepared (1.25, 2.5, and 5 mg/mL) so that the doses are equivalent to 15, 30, and 60 mg/kg with a 0.25 mL injection. • Amifostine: The stock solution of amifostine was dissolved in saline to the desired concentration (16 mg/mL) for the 200 mg/kg injection.
Cardiac puncture was used to obtain blood from each mouse on day 6. To assess liver/kidney protection by UTL-5g, all blood samples were analyzed for BUN, creatinine, AST, and ALT by the chemistry lab at Henry Ford Health System. Unopette® (Becton Dickinson, Franklin Lakes, N.J.) diluting systems and a hemocytometer were used to assess the effect of UTL-5g on WBC and platelet counts in blood.

[2] = within 1 h, cited from earlier work
[3] = test system: tumor cells; settings: animal data; cited from earlier work
[4] = test system: BDF1 mice; assay: Cisplatin side-effect time course / MTD, ip daily ×5 (Example 1); format: in vivo; settings: ip daily ×5, BDF1 mice
Experimental: First, 0.25 mL of 0.2 mg/mL cisplatin (eq to 2.5 mg/kg) in saline was injected ip, daily ×5, in BDF1 mice. Saline was used as a control. Two mice were used per group and sacrificed on day 0 (control), 2, 4, 7, 9, 11, and 15. In addition, 2 BDF1 mice were injected with a higher dose, 0.25 mL of 0.4 mg/mL cisplatin (eq to 5 mg/kg), daily ×5. Unfortunately, for the higher dose, 1 mouse died on day 7 and the second was euthanized on day 14. This confirms the MTD of cisplatin was <5 mg/kg by ip daily ×5 as shown in the MTD study.
To further narrow down the exact day between day 4 and 7, a follow-up animal study was conducted employing cisplatin at 2.5 mg/kg and the mice were sacrificed on day 0 (control), 5, 6, and 7 (2 mice per point).

[5] = test system: TNF-α; assay: TNF-α levels in plasma of cisplatin-treated mice (commercial assay kit, eBioscience); format: in vivo; settings: cisplatin 2.5 mg/kg ip daily ×5; pooled plasma day 6
Experimental: FIG. 5. Effect of UTL-5g on TNF-α levels in plasma for mice treated with cisplatin. Gp 1, medium control (saline) only; Gp 2, saline followed by cisplatin (2.5 mg/kg) 30 min later; Gp 3, UTL-5g (15 mg/kg) followed by cisplatin 30 min later; Gp 4, UTL-5g (30 mg/kg) followed by cisplatin 30 min later; Gp 5, UTL-5g (60 mg/kg) followed by cisplatin 30 min later. Y axis represents the relative levels of TNF-α assuming 0% for Gp 1 (Control). Level of TNF-α on the figure is based on the average of 2 readings. […]
Using the samples from the same animal study, TNF-α levels in plasma were analyzed. […]

[6] = ip 30 min before cisplatin 2.5 mg/kg, daily ×5, UTL-5g 15, 30, 60 mg/kg, amifostine 200 mg/kg
[7] = cisplatin 2.5 mg/kg ip daily ×5 or 5 mg/kg single dose
[8] = cisplatin 5 mg/kg ip single dose day 0 (Gp 7) vs Control (Gp 1)

SMILES | BUN levels, effect of pretreatment [1, 6] | creatinine, effect of pretreatment [1, 6] | platelet count, effect of pretreatment [1, 6] | platelet count, effect of pretreatment ([1]; ip 30 min before cisplatin 2.5 mg/kg, daily ×5, UTL-5g 15, 30, 60 mg/kg, amifostine 200 mg/kg, listed as Amifostine) | cleared from the plasma, share of the peak concentration ([2]; amifostine) | metabolite cleared from the plasma, share of the peak concentration ([2]; metabolite of amifostine) | tumor-protective effect [3] | MTD of cisplatin [4] | ALT levels, effect of cisplatin [1, 7] | AST levels, effect of cisplatin [1, 7] | BUN levels, effect of cisplatin [1, 7] | creatinine, effect of cisplatin [1, 7] | WBC count, effect of cisplatin [1, 8] | platelet count, effect of cisplatin [1, 8] | TNF-α in plasma, effect of cisplatin [5]
NCCCNCCSP(=O)(O)O [amifostine, reference compound] | essentially the same reduction | Essentially the same results | statistically significant decrease on platelet count | does not have similar positive effect on platelet production | 95% | 50% | may have tumor-protective effect | – | – | – | – | – | – | – | –
N.N.[Cl][Pt][Cl] [cisplatin, cis-dichlorodiammine platinum, reference compound] | – | – | – | – | – | – | – | < 5 mg/kg | elevated by cisplatin | elevated by cisplatin | elevated by cisplatin in a dose-dependent manner | Essentially the same results | lower WBC count as compared to Control | did decrease platelet count significantly | elevated by cisplatin
